The structures appear in SMILES notation. Structures can show the parent of a compound that is named as a salt. Some results are limits rather than exact numbers.

For one assay, the system named is PMS1. The assay can be described thus: Mini-gene reporter assay-PMS1. The class given is cell-based. The following applies: Homo sapiens, HEK293, PMS1 mini-gene firefly luciferase reporter transiently transfected into HEK293 cells; read-out: PMS1 IC50. The text has this: Biological Activity of the Compounds of the Present Disclosure Mini-gene reporter assay-PMS1
Mini-gene reporter constructs for each target site can be constructed by first PCR amplifying the region-of-interest including the sequence of the alternatively skipped, sequences of the immediate upstream and downstream introns, and sequences of the immediate upstream and downstream exons. Then the 3′end of the amplified sequence can be ligated to a firefly luciferase reporter gene and cloned into the pcDNA3.1 vector backbone. The final reporter construct can be transiently transfected into HEK293 cells using Lipofectamine 3000 transfection reagents. Compounds that can induce the inclusion of the skipped exon in the reporter construct would increase the reporter firefly luciferase activity.
Test compounds may be diluted in duplicates and dispensed into an assay plate. Transient mini-gene reporter cell line stock is resuspended and dispensed into the assay plate. Assay plates are then centrifuged and incubated. A luciferase reagent (e.g. ONE-Glo firefly luciferase reagent from Promega®) may be added to the assay plate and the luminescence (RLU) signals recorded. PMS1 EC50 values may be determined by curve fitting in Levenberg-Marquardt algorithm.
Background: A reporter such as luciferase makes a cellular process visible.
As a reminder, the IC50 is the point on the concentration scale where inhibition reaches its midpoint. In the case of `CCOc1nc(N2CC[C@@H]3CNC[C@@H]3C2)ncc1C(=O)Nc1cn2cc(C)nc2c(C)n1` (racemic) [Compound 29], the IC50 was above 3000 nM.
As for `CCOc1nc(N2CC[C@@H]3NCCC[C@@H]3C2)ncc1C(=O)Nc1cn2cc(C)nc2c(C)n1` (racemic) [Compound 31], the IC50 was above 3000 nM.
`CCOc1nc(N2CC[C@@H]3CNC[C@@H]32)ncc1C(=O)Nc1cn2cc(C)nc2c(C)n1` (racemic) [Compound 60]: the IC50 was 500 to 1000 nM.
On to `CCOc1nc(N2CC[C@@H]3NCC[C@@H]3C2)ncc1C(=O)Nc1cn2cc(C)nc2c(C)n1` (racemic) [Compound 90], for which the IC50 lay within 1000 to 3000 nM.
Turning to `CCOc1nc(N2C[C@H]3CNCC[C@H]32)ncc1C(=O)Nc1cn2cc(C)nc2c(C)n1` (racemic) [Compound 95], the IC50 was below 500 nM.
As for `CCOc1nc(N2C[C@@H]3CNC[C@]3(C)C2)ncc1C(=O)Nc1cn2cc(C)nc2c(C)n1` (racemic) [Compound 98], the IC50 is below 500 nM.
On to `CCOc1nc(N2CCN[C@H]3CC[C@H]32)ncc1C(=O)Nc1cn2cc(C)nc2c(C)n1` (racemic) [Compound 101], for which the IC50 was 500 to 1000 nM.
As for `CCOc1nc(N2C[C@H]3CNCC[C@H]3C2)ncc1C(=O)Nc1cn2cc(C)nc2c(C)n1` (racemic) [Compound 105], the IC50 is below 500 nM.
Consider `CCOc1nc(N2CC3(CCNCC3)[C@H]3COC[C@H]32)ncc1C(=O)Nc1cc(F)c2nc(C)cn2c1` (racemic) [Compound 124], for which the IC50 was above 3000 nM.
`CCOc1nc(N2CC[C@@H]3NCCC[C@@H]3C2)ncc1C(=O)Nc1cc(F)c2nc(C)cn2c1` (racemic) [Compound 139]: the IC50 was below 500 nM.
Regarding `CCOc1nc(N2CC[C@H]3CN[C@H]3C2)ncc1C(=O)Nc1cc(F)c2nc(C)cn2c1` (racemic) [Compound 169], the IC50 is 500 to 1000 nM.
Consider `CCOc1nc(N(C)[C@@H]2CNC[C@H]2O)ncc1C(=O)Nc1cc(F)c2nc(C)cn2c1` (racemic) [Compound 174], for which the IC50 was in the range of 1000 to 3000 nM.
For the compound `CCOc1nc(N2CCO[C@H]3CNC[C@H]32)ncc1C(=O)Nc1cc(F)c2nc(C)cn2c1` (racemic) [Compound 177], the concentration for half-maximal inhibition (IC50) lay within 1000 to 3000 nM.
In the case of `CCOc1nc(N2CCC[C@H]3NCC[C@H]32)ncc1C(=O)Nc1cc(F)c2nc(C)cn2c1` (racemic) [Compound 178], the IC50 is below 500 nM.
For `CCOc1nc(N2C[C@@H]3CNC[C@]3(C)C2)ncc1C(=O)Nc1cc(F)c2nc(C)cn2c1` (racemic) [Compound 179], the IC50 was below 500 nM.
As for `CCOc1nc(N2CC[C@H]3CCN[C@H]3C2)ncc1C(=O)Nc1cc(F)c2nc(C)cn2c1` (racemic) [Compound 198], the IC50 is 1000 to 3000 nM.
On to `CCOc1nc(N2CC[C@@H]3NCC[C@@H]3C2)ncc1C(=O)Nc1cc(F)c2nc(C)cn2c1` (racemic) [Compound 199], for which the IC50 was below 500 nM.
Same read-out and setting: the figure for `CCOc1nc(N2CC[C@@H]3CNC[C@@H]32)ncc1C(=O)Nc1cc(F)c2nc(C)cn2c1` (racemic) [Compound 209] is below 500 nM; for `CCOc1nc(N2C[C@H]3CNCC[C@H]32)ncc1C(=O)Nc1cc(F)c2nc(C)cn2c1` (racemic) [Compound 245] it is below 500 nM; for `CCOc1nc(N2CC[C@H](NC)C2)ncc1C(=O)Nc1cc(F)c2nc(C)cn2c1` (single isomer, unassigned) [Compound 312, hydrochloride] it is below 500 nM.
The same measure, in the same setting: the figure for `COc1nc(N2CCNCC2)ncc1C(=O)Nc1cc(F)c2nc(C)cn2c1` [Compound 1, N-(8-fluoro-2-methylimidazo[1,2-a]pyridin-6-yl)-4-methoxy-2-(piperazin-1-yl)pyrimidine-5-carboxamide, HCl] is 1000 to 3000 nM; for `CCOc1nc(N2CCN[C@H](C)C2)ncc1C(=O)Nc1cc(F)c2nc(C)cn2c1` [Compound 3, 4-ethoxy-N-{8-fluoro-2-methylimidazo[1,2-a]pyridin-6-yl}-2-[(3R)-3-methylpiperazin-1-yl]pyrimidine-5-carboxamide] it is 500 to 1000 nM; for `CCOc1nc(N2CCN3CCCC3C2)ncc1C(=O)Nc1cc(F)c2nc(C)cn2c1` (stereo not shown) [Compound 5, 4-ethoxy-N-{8-fluoro-2-methylimidazo[1,2-a]pyridin-6-yl}-2-{octahydropyrrolo[1,2-a]pyrazin-2-yl}pyrimidine-5-carboxamide] it is 1000 to 3000 nM.
`CCOc1nc(N2CCN(C)CC2)ncc1C(=O)Nc1cc(F)c2nc(C)cn2c1` [Compound 6, 4-ethoxy-N-{8-fluoro-2-methylimidazo[1,2-a]pyridin-6-yl}-2-(4-methylpiperazin-1-yl)pyrimidine-5-carboxamide]: the IC50 is 1000 to 3000 nM.
For the compound `CCOc1nc(N2CCN[C@@H](C)C2)ncc1C(=O)Nc1cc(F)c2nc(C)cn2c1` [Compound 7, 4-ethoxy-N-{8-fluoro-2-methylimidazo[1,2-a]pyridin-6-yl}-2-[(3S)-3-methylpiperazin-1-yl]pyrimidine-5-carboxamide], the IC50 was in the range of 500 to 1000 nM.
`CCOc1nc(N2CC3CNCC3C2)ncc1C(=O)Nc1cc(F)c2nc(C)cn2c1` (stereo not shown) [Compound 8, 4-ethoxy-N-{8-fluoro-2-methylimidazo[1,2-a]pyridin-6-yl}-2-{octahydropyrrolo[3,4-c]pyrrol-2-yl}pyrimidine-5-carboxamide]: the IC50 is below 500 nM.
With `CCOc1nc(N2CCNCC2)ncc1C(=O)Nc1cn2cc(C)nc2cn1` [Compound 9, 4-ethoxy-N-{2-methylimidazo[1,2-a]pyrazin-6-yl}-2-(piperazin-1-yl)pyrimidine-5-carboxamide], the IC50 lay within 1000 to 3000 nM.
`CCOc1nc(N2CCNC(C)(C)C2)ncc1C(=O)Nc1cn2cc(C)nc2cn1` [Compound 10, 2-(3,3-dimethylpiperazin-1-yl)-4-ethoxy-N-{2-methylimidazo[1,2-a]pyrazin-6-yl}pyrimidine-5-carboxamide]: the IC50 is above 3000 nM.

The assay is the same for the next values; noted with them: Homo sapiens, HEK293, read-out: PMS1 IC50 (nM).
For `CCOc1nc(N2CCNCC2)ncc1C(=O)Nc1cc(F)c2nc(C)cn2c1` [Compound 2, 4-ethoxy-N-{8-fluoro-2-methylimidazo[1,2-a]pyridin-6-yl}-2-(piperazin-1-yl)pyrimidine-5-carboxamide], the IC50 is below 500 nM.

The assay is the same for the next values; noted with them: Homo sapiens; at 5 μM; PMS1 mini-gene firefly luciferase reporter in HEK293 cells; read-out: PMS1% Effect at 5 μM.
Regarding `CCOc1nc(N2CCO[C@H]3CNC[C@H]32)ncc1C(=O)Nc1cn2cc(C)nc2c(C)n1` (racemic) [Compound 93], the activation at 5 µM is below 50%.
Take `CCOc1nc(N2CC[C@@H]3NCC(=O)N[C@@H]3C2)ncc1C(=O)Nc1cc(F)c2nc(C)cn2c1` (racemic) [Compound 170]: the activation at 5 µM is below 50%.
For `CCOc1nc(N2CCNC(CC(F)F)C2)ncc1C(=O)Nc1cc(F)c2nc(C)cn2c1` (single isomer, unassigned) [Compound 309], the activation at 5 µM is 50 to 75%.
In the case of `CCOc1nc(N2CC[C@@H](NC)C2)ncc1C(=O)Nc1cc(F)c2nc(C)cn2c1` (single isomer, unassigned) [Compound 311, hydrochloride], the activation at 5 µM was above 75%.

The assay is the same for the next values; noted with them: PMS1 mini-gene firefly luciferase reporter transiently transfected into HEK293 cells; hydrochloride; read-out: PMS1 IC50.
On to `CCOc1nc(N2C[C@@H](C)N[C@@H](C)C2)ncc1C(=O)Nc1cc(F)c2nc(C)cn2c1` [Compound 4, 2-[(3R,5S)-3,5-dimethylpiperazin-1-yl]-4-ethoxy-N-{8-fluoro-2-methylimidazo[1,2-a]pyridin-6-yl}pyrimidine-5-carboxamide hydrochloride], for which the IC50 fell in the range of 500 to 1000 nM.

For the origin of these results see patent publication US20250122192A1, “5-PYRIMIDINECARBOXAMIDE DERIVATIVES AND METHODS OF USING THE SAME” (Rgenta Therapeutics, Inc., priority 2021, published 2025).
